A value given as a limit tells only on which side of the number the result lay.

In patent US11180474B2 (BRISTOL-MYERS SQUIBB COMPANY, priority 2016, dated 2021) one finds IC50 data, which are given here for 17 compounds.

The target in assay [1] is T1, human TLR9 (Homo sapiens, UniProt Q9NR96).
T1 construct: host or cells: HEK-Blue cells
T1 sequence (Q9NR96 26-1032): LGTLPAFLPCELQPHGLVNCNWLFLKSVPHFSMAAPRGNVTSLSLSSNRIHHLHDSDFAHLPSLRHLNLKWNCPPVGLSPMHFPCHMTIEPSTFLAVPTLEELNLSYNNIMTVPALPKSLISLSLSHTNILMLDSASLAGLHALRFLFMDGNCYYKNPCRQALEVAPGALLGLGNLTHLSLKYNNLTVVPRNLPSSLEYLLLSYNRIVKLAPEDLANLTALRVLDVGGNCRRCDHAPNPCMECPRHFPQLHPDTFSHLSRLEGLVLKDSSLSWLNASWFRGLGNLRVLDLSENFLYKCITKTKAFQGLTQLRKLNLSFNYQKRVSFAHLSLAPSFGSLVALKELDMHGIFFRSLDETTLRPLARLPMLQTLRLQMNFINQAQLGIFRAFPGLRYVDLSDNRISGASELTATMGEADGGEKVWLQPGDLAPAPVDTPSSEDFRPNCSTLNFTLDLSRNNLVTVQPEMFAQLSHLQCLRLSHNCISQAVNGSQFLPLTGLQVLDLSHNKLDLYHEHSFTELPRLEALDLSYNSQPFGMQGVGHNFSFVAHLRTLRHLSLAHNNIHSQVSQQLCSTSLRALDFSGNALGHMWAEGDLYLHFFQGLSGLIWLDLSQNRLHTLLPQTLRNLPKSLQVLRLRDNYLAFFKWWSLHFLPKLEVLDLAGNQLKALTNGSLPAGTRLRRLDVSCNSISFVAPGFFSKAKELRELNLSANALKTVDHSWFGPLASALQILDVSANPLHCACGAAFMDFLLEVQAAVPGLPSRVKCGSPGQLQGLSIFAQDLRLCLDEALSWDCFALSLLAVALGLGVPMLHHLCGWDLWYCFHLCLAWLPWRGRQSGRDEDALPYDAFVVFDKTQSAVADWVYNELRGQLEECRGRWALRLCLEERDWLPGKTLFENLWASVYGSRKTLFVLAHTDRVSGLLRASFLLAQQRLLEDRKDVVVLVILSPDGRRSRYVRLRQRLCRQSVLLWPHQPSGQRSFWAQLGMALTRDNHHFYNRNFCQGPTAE
The assay is described as follows: TLR9 inhibition reporter assay (HEK-Blue cells, SEAP reporter, ODN2006 stimulation). Type of assay: cell-based. The note with it: HEK-Blue cells overexpressing human TLR9, ODN2006 5 nM. How it is done: (§1) TLR7/8/9 Inhibition Reporter Assays
HEK-Blue™-cells (Invivogen) overexpressing human TLR7, TLR8 or TLR9 receptors were used for screening inhibitors of these receptors using an inducible SEAP (secreted embryonic alkaline phosphatase) reporter gene under the control of the IFN-β minimal promoter fused to five NF-κB and AP-1-binding sites. Briefly, cells are seeded into Greiner 384 well plates (15000 cells per well for TLR7, 20,000 for TLR8 and 25,000 for TLR9) and then treated with test compounds in DMSO to yield a final dose response concentration range of 0.05 nM-50 μM. After a 30 minute compound pre-treatment at room temperature, the cells are then stimulated with a TLR7 ligand (gardiquimod at a final concentration of 7.5 μM), TLR8 ligand (R848 at a final concentration of 15.9 μM) or TLR9 ligand (ODN2006 at a final concentration of 5 nM) to activate NF-κB and AP-1 which induce the production of SEAP. After a 22 hour incubation at 37° C., 5% CO2, SEAP levels are determined with the addition of HEK-Blue™ Detection reagent (Invivogen), a cell culture medium that allows for detection of SEAP, according to manufacturer's specifications. The percent inhibition is determined as the % reduction in the HEK-Blue signal present in wells treated with agonist plus DMSO alone compared to wells treated with a known inhibitor.
On the technique in general: In a reporter assay the amount or activity of a reporter protein is the signal.

Assay [2] has as its target T2, human TLR7 (Homo sapiens, UniProt Q9NYK1).
T2 construct: host or cells: HEK-Blue cells
T2 sequence (Q9NYK1 27-1049): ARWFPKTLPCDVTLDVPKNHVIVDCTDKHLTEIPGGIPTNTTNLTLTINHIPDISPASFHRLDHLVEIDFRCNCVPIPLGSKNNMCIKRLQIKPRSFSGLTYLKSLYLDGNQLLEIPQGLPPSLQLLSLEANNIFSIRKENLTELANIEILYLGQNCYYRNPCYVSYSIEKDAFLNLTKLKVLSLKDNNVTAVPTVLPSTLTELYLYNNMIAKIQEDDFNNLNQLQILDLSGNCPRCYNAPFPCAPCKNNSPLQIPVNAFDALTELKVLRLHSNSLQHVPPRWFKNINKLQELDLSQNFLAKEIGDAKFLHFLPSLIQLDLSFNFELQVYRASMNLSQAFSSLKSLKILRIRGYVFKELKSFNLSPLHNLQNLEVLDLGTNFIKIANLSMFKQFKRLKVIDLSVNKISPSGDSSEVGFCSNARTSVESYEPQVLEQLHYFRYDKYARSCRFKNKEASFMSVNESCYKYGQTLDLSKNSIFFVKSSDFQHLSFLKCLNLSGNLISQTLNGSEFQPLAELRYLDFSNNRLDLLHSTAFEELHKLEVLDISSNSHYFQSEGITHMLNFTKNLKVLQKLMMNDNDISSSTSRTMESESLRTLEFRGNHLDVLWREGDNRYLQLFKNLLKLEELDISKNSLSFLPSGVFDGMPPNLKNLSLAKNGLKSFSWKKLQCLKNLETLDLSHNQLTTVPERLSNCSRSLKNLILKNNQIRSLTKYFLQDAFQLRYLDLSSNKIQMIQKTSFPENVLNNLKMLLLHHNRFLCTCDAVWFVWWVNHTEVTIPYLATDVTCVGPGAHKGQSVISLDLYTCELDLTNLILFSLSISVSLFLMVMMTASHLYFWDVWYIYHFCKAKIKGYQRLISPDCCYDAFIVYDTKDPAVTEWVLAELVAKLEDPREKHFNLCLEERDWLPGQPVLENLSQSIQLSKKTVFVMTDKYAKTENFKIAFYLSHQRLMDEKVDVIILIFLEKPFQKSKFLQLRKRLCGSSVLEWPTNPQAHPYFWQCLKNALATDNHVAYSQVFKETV
In words: TLR7 inhibition reporter assay (HEK-Blue cells, SEAP reporter, gardiquimod stimulation). The note with it: HEK-Blue cells overexpressing human TLR7, gardiquimod 7.5 μM. Type of assay: cell-based. How it is done:
as §1
Briefly, cells are seeded into Greiner 384 well plates (15000 cells per well for TLR7, 20,000 for TLR8 and 25,000 for TLR9) and then treated with test compounds in DMSO to yield a final dose response concentration range of 0.05 nM-50 μM. […] After a 22 hour incubation at 37° C., 5% CO2, SEAP levels are determined with the addition of HEK-Blue™ Detection reagent (Invivogen), a cell culture medium that allows for detection of SEAP, according to manufacturer's specifications. The percent inhibition is determined as the % reduction in the HEK-Blue signal present in wells treated with agonist plus DMSO alone compared to wells treated with a known inhibitor.

`CCCN1CCC(N2CCC(c3ccc4[nH]c(-c5ccc(OC)c(OC)c5)c(C)c4c3)CC2)CC1` [Example 63, 2-(3,4-dimethoxyphenyl)-3-methyl-5-(1′-propyl-[1,4′-bipiperidin]-4-yl)-1H-indole]: the IC50 (commonly the concentration that inhibits the measured activity by half) was 0.132 µM in assay [1] and 0.321 µM in assay [2].
Consider `CCc1c(-c2ccc(OC)c(OC)c2)[nH]c2ccc(C3CCN(C(=O)CN4CCN(C(=O)C5CCCO5)CC4)CC3)cc12` (stereo not shown) [Example 172, 1-(4-(2-(3,4-dimethoxyphenyl)-3-ethyl-1H-indol-5-yl)piperidin-1-yl)-2-(4-(tetrahydrofuran-2-carbonyl)piperazin-1-yl)ethan-1-one], for which the IC50 in assay [1] was found to be 19.3 µM; in assay [2], 0.263 µM.
For `COc1ccc(-c2[nH]c3ccc(C4CCN(C5CCCN(C(C)C)CC5)CC4)cc3c2C)cc1OC` (stereo not shown) [Example 92, 2-(3,4-dimethoxyphenyl)-5-(1-(1-isopropylazepan-4-yl)piperidin-4-yl)-3-methyl-1H-indole], the figures for the IC50 in assay [1] and in assay [2] were 0.059 µM and 0.576 µM, respectively.
The matching figures for `COc1ccc(-c2[nH]c3ccc(C4CCN(C5CCNC5)CC4)cc3c2C)cc1OC` (stereo not shown) [Example 104, 2-(3,4-dimethoxyphenyl)-3-methyl-5-(1-(pyrrolidin-3-yl)piperidin-4-yl)-1H-indole]: 1.05 µM and 2.17 µM.
For `COc1ccc(-c2[nH]c3ccc(C4CCN(Cc5ccccn5)CC4)cc3c2C)cc1OC` [Example 28, 2-(3,4-dimethoxyphenyl)-3-methyl-5-(1-(pyridin-2-ylmethyl)piperidin-4-yl)-1H-indole], in that order: 1.01 µM and 0.638 µM.
For `COc1ccc(-c2[nH]c3ccc(C4CCN(C5CCN(CCC(C)O)CC5)CC4)cc3c2C)cc1OC` (stereo not shown) [Example 56, 4-(4-(2-(3,4-dimethoxyphenyl)-3-methyl-1H-indol-5-yl)-[1,4′-bipiperidin]-1′-yl)butan-2-ol], in that order: 0.217 µM and 0.409 µM.
On to `COc1ccc(-c2[nH]c3ccc(C4CCN(Cc5cccc6cccnc56)CC4)cc3c2C)cc1OC` [Example 36, 8-((4-(2-(3,4-dimethoxyphenyl)-3-methyl-1H-indol-5-yl)piperidin-1-yl)methyl)quinoline], for which the figures for the IC50 in assay [1] and in assay [2] were 0.348 µM and 1.16 µM, respectively.
Turning to `CCOC(=O)N1CCC(N2CCC(c3ccc4[nH]c(-c5ccc(OC)c(OC)c5)c(C)c4c3)CC2)C1` (stereo not shown) [Example 13, ethyl 3-(4-(2-(3,4-dimethoxyphenyl)-3-methyl-1H-indol-5-yl)piperidin-1-yl) pyrrolidine-1-carboxylate], the figures for the IC50 in assay [1] and in assay [2] were 1.08 µM and at least 50 µM, respectively.
Consider `COc1ccc(-c2[nH]c3ccc(C4CCN(Cc5ccnc6ccccc56)CC4)cc3c2C)cc1OC` [Example 32, 4-((4-(2-(3,4-dimethoxyphenyl)-3-methyl-1H-indol-5-yl)piperidin-1-yl)methyl)quinoline], for which the IC50 was determined as 3.59 µM in assay [1] and 2.48 µM in assay [2].
In the case of `COc1ccc(-c2[nH]c3ccc(C4CCN(C(=O)CNc5cc(C(C)(C)C)n[nH]5)CC4)cc3c2C(C)C)cc1OC` [Example 216, 2-((3-(tert-butyl)-1H-pyrazol-5-yl)amino)-1-(4-(2-(3,4-dimethoxyphenyl)-3-isopropyl-1H-indol-5-yl)piperidin-1-yl)ethan-1-one], the figures for the IC50 in assay [1] and in assay [2] were at least 50 µM and 0.212 µM, respectively.
The matching figures for `COc1ccc(-c2[nH]c3ccc(C4CCN(C5CCN(CCC(C)C)CC5)CC4)cc3c2C)cc1OC` [Example 77, 2-(3,4-dimethoxyphenyl)-5-(1′-isopentyl-[1,4′-bipiperidin]-4-yl)-3-methyl-1H-indole]: 0.218 µM and 0.522 µM.
The matching figures for `COc1ccc(-c2[nH]c3ccc(C4CCN(Cc5csc(N)n5)CC4)cc3c2C)cc1OC` [Example 14, 4-((4-(2-(3,4-dimethoxyphenyl)-3-methyl-1H-indol-5-yl)piperidin-1-yl)methyl)thiazol-2-amine]: 1.09 µM and 2.11 µM.
On to `COc1ccc(-c2[nH]c3ccc(C4CCN(C5CCN(C6CCC6)CC5)CC4)cc3c2C)cc1OC` [Example 61, 5-(1′-cyclobutyl-[1,4′-bipiperidin]-4-yl)-2-(3,4-dimethoxyphenyl)-3-methyl-1H-indole], for which the figures for the IC50 in assay [1] and in assay [2] were 0.555 µM and 1.59 µM, respectively.
The matching figures for `COc1ccc(-c2[nH]c3ccc(C4CCN(Cc5ccc(OCCCN(C)C)cc5)CC4)cc3c2C)cc1OC` [Example 38, 3-(4-((4-(2-(3,4-dimethoxyphenyl)-3-methyl-1H-indol-5-yl)piperidin-1-yl)methyl)phenoxy)-N,N-dimethylpropan-1-amine]: 0.21 µM and 0.663 µM.
As for `COc1ccc(-c2[nH]c3ccc(C4CCN(C[C@H]5CCCN5)CC4)cc3c2C)cc1OC` [Example 108, (R)-2-(3,4-dimethoxyphenyl)-3-methyl-5-(1-(pyrrolidin-2-ylmethyl)piperidin-4-yl)-1H-indole], the IC50 in assay [1] is 0.861 µM; in assay [2], 3.54 µM.
Take `COc1ccc(-c2[nH]c3ccc(C4CCN(C[C@@H]5CCCN5)CC4)cc3c2C)cc1OC` [Example 107, (S)-2-(3,4-dimethoxyphenyl)-3-methyl-5-(1-(pyrrolidin-2-ylmethyl)piperidin-4-yl)-1H-indole]: the results for the IC50 in assay [1] and in assay [2] were 0.614 µM and 1.31 µM, respectively.
Consider `COc1ccc(-c2[nH]c3ccc(C4CCN(C5CCCNCC5)CC4)cc3c2C)cc1OC` (stereo not shown) [Example 103, 5-(1-(azepan-4-yl)piperidin-4-yl)-2-(3,4-dimethoxyphenyl)-3-methyl-1H-indole], for which the IC50 in assay [1] was found to be 0.157 µM; in assay [2], 0.344 µM.
